Data taken from patent US20250345362A1, “MULTI-IONIC COMPLEX FOR THE PREVENTION OR TREATMENT OF INFLAMMATION” (YNIOS PHARMA, priority 2022, published 2025).

Experiments:
[1] = tested on: sensory neurons; assay: Myelinated sensory neurons with or without cisplatin: neuron count, neurite length, myelin sheath length (Examples 7 and 8a, curative protocol); format: cell-based, rat; conditions: for Average percentage of neurite length relative to control / Average percentage of sensory neuron count relative to control: isolated ions + cisplatin (12 μM, 24 h), Table 3
Protocol: Female rats with 15 days gestation were killed by cervical dislocation (Wistar rats; January Lab) and fetuses were removed from the uterus. Embryonic DRGs were collected and placed in an icy medium of Leibovitz 15 (L15; PanBiotech, Ref P04-27055, Batch: 5331021) containing 2% Penicillin-Streptomycin (PS; PanBiotech, ref: P06-07100, Batch: 9300621) and 1% bovine serum albumin (BSA; PanBiotech, ref: P06-1391100, lot: H210207). DRG were dissociated by trypsinization for 20 minutes (min) at 37° C. (Trypsin EDTA 1X; PanBiotech, Ref: P10-023100, Batch: 8600621). The reaction was halted by the addition of Dulbecco's modified Eagle medium (DMEM; PanBiotech, Ref: P04-03600, Batch: 1130721) containing DNase I grade II (0.1 mg/ml; PanBiotech, Ref: P60-37780100, Batch: H181015) and 10% fetal calf serum (FCS; Invitrogen, ref: 10270106, lot: 2319479). The cells were then mechanically dissociated by 3 passes through a 10 ml pipette. The cells were then centrifuged at 180×g for 10 min at +4° C. on a layer of BSA (3.5%) in medium L15. The supernatant was discarded and the cell pellets were resuspended in a defined culture medium consisting of Neurobasal (Invitrogen, Ref: 21103049, Batch: 2348949) supplemented with 2% B27; (Invitrogen, ref: 17504-044, Batch: 2336991), L-glutamine (2 mM; PanBiotech, Ref: P04-80100, Batch: 2770620), 2% PS and 50 ng/mL NGF (Sigma, Ref: N1408, Lot: SLCG2596). The viable cells were then counted in a Neubauer cytometer using the trypan blue exclusion test. The cells were seeded to a density of 12000 cells/wells in 96-well plates (pre-coated with poly-D-lysine; Greiner, Ref: 655940, Lot: E200933A) and were grown at 37° C. in humidified air (95%/CO2 (5%) atmosphere. Half of the middle was changed every 2 days with fresh medium. The cells are maintained for 7 days to allow the proliferation of Schwann cells and sensory neurons. On day 8, the medium is supplemented with 50 μg/mL of ascorbic acid (AA; Sigma, Ref 092902, Batch: 05316HJ-438) to initiate the differentiation of basal Schwann cells into myelinating Schwann cells.
Cis-diammineplatinum(II) dichloride (cisplatin; Sigma, ref: P4394, lot: MKCN8054) was reconstituted in DMSO at 24 mM (stock solution). The control environment was prepared under the same conditions. After 12 days of culture with AA, the primary sensory neurons were pretreated for 2 hours with the compositions of Example 1 or with a reference compound (NGF, 50 ng/ML) and then intoxicated with cisplatin. The cisplatin preparation was used on neurons at a final concentration of 12 μM diluted in control medium for 24 hours of incubation.
In parallel, the effect of isolated or combined ions two by two on the survival of sensory neurons and the length of neurites was also evaluated under the same conditions. The solutions are all prepared from chlorides of the ions tested.
The effect of ion combinations on sensory neuron survival and neurite length was evaluated under the same conditions as described above. The solutions are all prepared from chlorides of the ions tested.

[2] = tested on: IL-1β; assay: IL-1β in supernatant of LPS-stimulated human mononuclear blood cells; format: cell-based; conditions: for Results IL-1β (percentage relative to the vehicle): 2 h pretreatment, LPS 100 ng/mL 6 h; for reduction of IL-1β levels, in words: LPS 100 ng/mL, FIG. 7-9
Protocol: (§1) Methods: Mononuclear blood cells are isolated from the blood of healthy donors through Ficoll density gradient (Ficoll-Paque PLUS; GE Healthcare; 11778538) with density gradient centrifuge tubes (SepMate; StemCell Technologies; 85450). The mononuclear blood cells are deposited (200000 cells per well) in 96-well plates, pretreated either with the vehicle (0.179% PBS) or with a composition according to the invention or ions alone (see Table 6) for 2 hours, then stimulated for 6 hours without (vehicle 0.002% H2O) or with lipopolysaccharides (LPS at 100 ng/mL; Invivogen, tlrl-b5lps) at 37° C., 5% C02 in an RPMI medium containing 10% fetal calf serum and 1% penicillin/streptomycin. After 6 hours of incubation, the culture supernatant is collected and stored at −20° C. until cytokine analysis. The level of cytokines (IL-1β and IL-18) is quantified in the culture supernatant by ELISA according to the manufacturer's instructions (R&D Systems; DY201, DY318-05). Table 6 summarizes the percentage of IL-1β and IL-18 cytokines measured for each condition relative to the vehicle (ns: not significant)

[3] = rats; cited from earlier work
[4] = tested on: sensory neurons; assay: Myelinated sensory neurons with or without cisplatin: neuron count, neurite length, myelin sheath length (Examples 7 and 8a, curative protocol); format: cell-based, rat; conditions: without cisplatin (healthy cells), Table 2
[5] = tested on: IL-18; assay: IL-18 in supernatant of LPS-stimulated human mononuclear blood cells; format: cell-based; conditions: for Results IL-18 (percentage relative to the vehicle): 2 h pretreatment, LPS 100 ng/mL 6 h; for reduction of IL-18 levels, in words: LPS 100 ng/mL, FIG. 7-9
Protocol: as §1

[6] = tested on: sensory neurons; assay: Myelinated sensory neurons with or without cisplatin: survival, neurite length, myelin sheath length (Example 8b, protection protocol); format: cell-based, rat; conditions: cisplatin 12 μM, 24 hours
Protocol: The primary endpoint was the measurement of sensory neurons survival, the assessment of neurite length and myelin sheath length of sensory neurons after cisplatin intoxication and without intoxication.
Cis-diammineplatinum (II) dichloride (cisplatin; Sigma, ref: P4394, lot: MKCL0026) was reconstituted in medium at 10 mg/ml (stock solution). The control environment was prepared under the same conditions. After 12 days of culture with AA, primary sensory neurons were pretreated for 2 hours with a 3-concentration multi-ionic complex and then intoxicated with cisplatin. The cisplatin preparation was used on neurons at a final concentration of 12 μM diluted in control medium for 24 hours of incubation.
The concentrations of the multi-ionic complex were: • 1. TA6496: Li 10.37 mmol/kg, Mg 2.27 mmol/kg, K 16.88 mmol/kg • 2. TA6440: Li 5.76 mmol/kg, Mg 1.26 mmol/kg, K 9.38 mmol/kg • 3. TA6415: Li 1.73 mmol/kg, Mg 0.38 mmol/kg, K 2.81 mmol/kg
The following conditions were assessed: • Control medium • Control+cisplatin (12 μM, 24h) • Multi-ionic complex, at 3 different concentrations TA6496, TA6440 or TA6415+cisplatin (12 μM, 24h) • Multi-ionic complex, at 3 different concentrations TA6496, TA6440 or TA6415.
This study was performed with 6 wells per condition and duplicated for validation of results. The data included and analysed are the combined results of the 2 studies. […]

Row | SMILES | Average percentage of neurite length relative to control [1] | Average percentage of sensory neuron count relative to control [1] | Results IL-1β (percentage relative to the vehicle) ([2]; listed as K - 660 mg/L) | Results IL-1β (percentage relative to the vehicle) ([2]; listed as K - 880 mg/L) | reduction of IL-1β levels, in words [2] | intravenous lethal dose 50 (LD50) over 24 hours [3] | Average percentage of neurite length relative to control [4] | Average percentage of sensory neuron count relative to control [4] | Results IL-18 (percentage relative to the vehicle) ([5]; listed as K - 660 mg/L) | Results IL-18 (percentage relative to the vehicle) ([5]; listed as K - 880 mg/L) | reduction of IL-18 levels, in words [5] | effect on neurite length, in words ([1]; cisplatin 12 μM, 24 h) | effect on survival of sensory neurons (cisplatin-induced apoptosis), in words ([1]; cisplatin 12 μM, 24 h) | effect on myelin sheath length, in words [6] | Results IL-1β (percentage relative to the vehicle) ([2]; listed as Mg - 55.4 mg/L) | Results IL-1β (percentage relative to the vehicle) ([2]; listed as Mg - 73.9 mg/L) | Results IL-18 (percentage relative to the vehicle) ([5]; listed as Mg - 55.4 mg/L) | Results IL-18 (percentage relative to the vehicle) ([5]; listed as Mg - 73.9 mg/L)
1 | [Cl-].[K+] [K, potassium chloride] | 91% | 58% | 80.52% | 85.31% | Neither magnesium, lithium, nor potassium, alone, demonstrated significant reductions | 142 mg/kg | 115% | 117% | 72.48% | 69.71% | Neither magnesium, lithium, nor potassium, alone, demonstrated significant reductions |  |  |  |  |  |  | 
2 | [Mn+2] [Manganese] |  |  |  |  |  |  |  |  |  |  |  | without demonstrating any significant effect | without demonstrating any significant effect | without demonstrating any significant effect |  |  |  | 
3 | [Cl-].[Cl-].[Mg+2] [Mg, magnesium chloride] | 73% | 68% |  |  | Neither magnesium, lithium, nor potassium, alone, demonstrated significant reductions |  | 98% | 108% |  |  | Neither magnesium, lithium, nor potassium, alone, demonstrated significant reductions |  |  |  | 100.91% | 97.41% | 102.41% | 95.28%
